Measured values as given in patent publication US20110118347A1, “TREATMENT Of RINGWORM” (Vernolix Limited, priority 2008, published 2011).

How the values were obtained:
[1] = Penetration of compounds of Formula I into mammalian skin (living pig skin); assay type: in vitro ADME; conditions: 5% by wt in lanolin-based cream, applied to outer surface of living pig skin, after one hour
Description: The formulation may be applied to the outer surface of a section of living pig skin.

[2] = tested on: T. tonsurans; experiment: Screen for activity against fungal lawns of T. tonsurans; assay type: cell-based, Trichophyton tonsurans

CCCCCC(O)C(O)CC=CCCCCCCCC(=O)O (centres unmarked) [Compound (iv), 12,13-dihydroxyoctadec-9-enoic acid]
penetration of the active compounds into the dermis and epidermis [1]: a significant amount of compounds (i) and (iv) has penetrated the dermis | fungicidal activity against fungal lawns of T. tonsurans [2]: effective fungicidal activity
